Reference: patent publication US20090012156A1, “Composition comprising polyphenol” (Conopco, Inc. d/b/a Unilever, priority 2007, published 2009)

Test system: 2nd order mesenteric artery side branches of Spontaneously Hypertensive Rats (SHR)
Assay: Reactivity of isolated arteries: dilator effect during contraction induced by 40 mmol/L K+
Design: species or system rat
Procedure: Segments of 2nd order mesenteric artery side branches were isolated from 14 weeks old male Spontaneously Hypertensive Rats (SHR). Two stainless-steel wires (diameter 40 μm) were inserted in the lumen of the arterial segments, which were then mounted in organ chambers between an isometric force transducer and a displacement device (Danish Myotechnology by J. P. Trading, Denmark). The organ chambers were filled with Krebs-Ringer bicarbonate solution which was maintained at 37° C. and continuously aerated with 95% O2 and 5% CO2. Before the actual experiments started, arterial segments were stretched to their individual optimal lumen diameter for mechanical performance, i.e. the diameter at which maximal contractile responses to noradrenaline (10 μmol/L) were obtained. In each experiment four second order mesenteric resistance arterial segments from one animal were mounted in individual organ chambers and studied in parallel. […]
For the analysis of the acute effects of the mixtures on K+-induced contraction, increasing concentrations of the mixtures (0.1-100 umol/L) were administered on top of the stable contractions and were left in contact with the arterial segments for 5-7 min to make sure that either no effect or a stable effect was reached. […] In this way, the effects of different exposure times to the mixtures (7, 30 and 90 min) on K+-induced contraction, could be evaluated. […]
Active wall tension (AWT) was calculated by subtracting the resting wall tension.
All contractile responses (AWT in the presence of stimuli, solvent and mixes of ingredients) were next expressed as a percentage of the contractile response (AWT) to 10 uM noradrenaline at the end of the normalisation period, i.e. before exposure of the arterial segments to solvent or mixes of ingredients.
Effects of increasing concentrations of the solvent and of the mixes (0.1 to 100 umol/L) during contractile responses to 40 mmol/L K+, were calculated as % change of the level of pre-contraction. […]

## COc1cc(-c2oc3cc(O)cc(O)c3c(=O)c2O)ccc1O [isorhamnetin, 3′methoxy-3,4,5,7-tetrahydroxyflavone]
Rattus norvegicus, isolated SHR mesenteric resistance arteries pre-contracted with 40 mmol/L K+, effect worked out by comparing mixtures (Plackett-Burman design), corrected for solvent, read-out: EC50 of dilation of the arteries
  EC50: 3.1 µM
At 100 micromolar of isorhamnetin, isolated SHR mesenteric arteries pre-contracted with 40 mmol/L K+
  maximum dilatation: 94%
At a low concentration, isolated SHR mesenteric arteries, K+-induced contraction
  influence on the dilation of the arteries: significant influence on the dilation of the arteries
